What was measured:
D(1A) dopamine receptor = D(1A) dopamine receptor (Homo sapiens, UniProt P21728)
Histamine H2 receptor = Histamine H2 receptor (Homo sapiens, UniProt P25021); format: functional, cell-based
Vasopressin V1a receptor = Vasopressin V1a receptor (Homo sapiens, UniProt P37288)
[1] = molecular target: Sodium-dependent serotonin transporter (Homo sapiens, UniProt P31645)
Vasopressin V2 receptor = Vasopressin V2 receptor (Homo sapiens, UniProt P30518)
[2] = molecular target: T1, Muscarinic acetylcholine receptor M2 (Homo sapiens, UniProt P08172); format: functional, cell-based
T1 sequence (P08172 whole entry): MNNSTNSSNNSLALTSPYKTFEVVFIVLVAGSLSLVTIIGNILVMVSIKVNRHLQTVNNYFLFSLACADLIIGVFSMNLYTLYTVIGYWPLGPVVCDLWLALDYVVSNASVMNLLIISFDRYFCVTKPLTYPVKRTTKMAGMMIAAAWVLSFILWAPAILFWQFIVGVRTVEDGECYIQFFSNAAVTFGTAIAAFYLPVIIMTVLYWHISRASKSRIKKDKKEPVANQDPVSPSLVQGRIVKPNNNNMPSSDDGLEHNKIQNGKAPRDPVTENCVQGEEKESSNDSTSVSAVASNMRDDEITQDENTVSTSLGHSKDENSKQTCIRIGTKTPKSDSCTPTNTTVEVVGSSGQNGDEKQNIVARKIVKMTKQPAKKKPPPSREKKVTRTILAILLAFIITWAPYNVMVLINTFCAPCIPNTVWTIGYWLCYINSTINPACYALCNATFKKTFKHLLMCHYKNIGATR

Progesterone receptor = molecular target: T2, Progesterone receptor (Homo sapiens, UniProt P06401); format: functional
T2 sequence (P06401 whole entry): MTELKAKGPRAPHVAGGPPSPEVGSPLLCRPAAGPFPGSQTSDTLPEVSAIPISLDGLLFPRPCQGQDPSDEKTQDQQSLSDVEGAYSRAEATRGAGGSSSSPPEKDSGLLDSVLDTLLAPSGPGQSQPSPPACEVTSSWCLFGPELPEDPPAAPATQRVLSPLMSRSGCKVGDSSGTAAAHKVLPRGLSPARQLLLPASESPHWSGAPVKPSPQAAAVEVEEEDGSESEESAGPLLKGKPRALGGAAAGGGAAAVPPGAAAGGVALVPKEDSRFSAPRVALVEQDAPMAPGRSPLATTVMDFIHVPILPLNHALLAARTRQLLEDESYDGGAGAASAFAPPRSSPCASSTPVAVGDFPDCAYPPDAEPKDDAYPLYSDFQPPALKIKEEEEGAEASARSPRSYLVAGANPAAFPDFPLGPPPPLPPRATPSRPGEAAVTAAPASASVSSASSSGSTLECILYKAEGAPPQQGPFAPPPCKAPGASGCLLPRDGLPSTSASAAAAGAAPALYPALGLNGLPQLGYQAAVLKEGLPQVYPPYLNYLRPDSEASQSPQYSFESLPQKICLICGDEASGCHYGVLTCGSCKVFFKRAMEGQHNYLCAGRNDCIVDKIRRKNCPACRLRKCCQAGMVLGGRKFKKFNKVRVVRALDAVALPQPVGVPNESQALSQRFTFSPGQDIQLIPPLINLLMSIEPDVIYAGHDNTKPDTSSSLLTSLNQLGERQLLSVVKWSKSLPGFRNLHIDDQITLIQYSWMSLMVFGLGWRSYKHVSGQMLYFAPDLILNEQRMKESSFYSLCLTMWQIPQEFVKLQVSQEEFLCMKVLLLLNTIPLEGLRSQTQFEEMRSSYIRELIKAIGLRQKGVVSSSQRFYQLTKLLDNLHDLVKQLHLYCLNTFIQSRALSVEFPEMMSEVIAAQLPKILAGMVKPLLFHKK

Thromboxane A2 receptor = molecular target: T3, Thromboxane A2 receptor (Homo sapiens, UniProt P21731)
T3 sequence (P21731 whole entry): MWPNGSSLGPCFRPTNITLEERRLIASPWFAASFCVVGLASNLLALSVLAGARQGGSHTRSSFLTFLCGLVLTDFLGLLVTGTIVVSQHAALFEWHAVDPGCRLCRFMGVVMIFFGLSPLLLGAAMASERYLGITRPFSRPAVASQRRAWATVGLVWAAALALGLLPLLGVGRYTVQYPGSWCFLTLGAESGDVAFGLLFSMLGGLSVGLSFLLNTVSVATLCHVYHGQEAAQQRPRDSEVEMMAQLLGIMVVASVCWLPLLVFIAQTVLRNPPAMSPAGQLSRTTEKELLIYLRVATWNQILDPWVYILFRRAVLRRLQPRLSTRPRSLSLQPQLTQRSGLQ

[3] = molecular target: 3',5'-cyclic-AMP phosphodiesterase 4D (Homo sapiens, UniProt Q08499); format: functional
Sequence of 3',5'-cyclic-AMP phosphodiesterase 4D (Q08499 whole entry): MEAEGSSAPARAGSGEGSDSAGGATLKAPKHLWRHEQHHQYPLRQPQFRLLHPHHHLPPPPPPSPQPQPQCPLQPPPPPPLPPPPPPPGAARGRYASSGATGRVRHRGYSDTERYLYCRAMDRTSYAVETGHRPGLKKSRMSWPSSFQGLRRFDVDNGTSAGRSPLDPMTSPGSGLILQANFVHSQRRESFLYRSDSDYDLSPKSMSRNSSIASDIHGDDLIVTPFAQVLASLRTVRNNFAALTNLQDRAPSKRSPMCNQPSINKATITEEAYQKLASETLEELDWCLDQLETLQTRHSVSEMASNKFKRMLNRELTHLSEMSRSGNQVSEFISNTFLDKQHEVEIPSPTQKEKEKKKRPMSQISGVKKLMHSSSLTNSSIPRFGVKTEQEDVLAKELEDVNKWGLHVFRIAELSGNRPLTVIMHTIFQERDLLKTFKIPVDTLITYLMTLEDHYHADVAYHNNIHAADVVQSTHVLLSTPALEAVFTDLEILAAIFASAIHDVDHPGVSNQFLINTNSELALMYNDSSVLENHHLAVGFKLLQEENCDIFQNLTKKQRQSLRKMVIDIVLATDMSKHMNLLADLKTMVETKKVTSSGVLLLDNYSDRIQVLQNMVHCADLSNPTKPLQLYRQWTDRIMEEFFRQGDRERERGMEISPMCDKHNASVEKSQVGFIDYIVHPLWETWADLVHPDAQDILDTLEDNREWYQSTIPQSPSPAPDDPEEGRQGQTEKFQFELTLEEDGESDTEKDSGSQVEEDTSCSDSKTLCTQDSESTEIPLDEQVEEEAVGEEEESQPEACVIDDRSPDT

[4] = molecular target: Gamma-aminobutyric acid receptor subunit alpha-1 (Rattus norvegicus, UniProt P62813)
Sequence of Gamma-aminobutyric acid receptor subunit alpha-1 (P62813 whole entry): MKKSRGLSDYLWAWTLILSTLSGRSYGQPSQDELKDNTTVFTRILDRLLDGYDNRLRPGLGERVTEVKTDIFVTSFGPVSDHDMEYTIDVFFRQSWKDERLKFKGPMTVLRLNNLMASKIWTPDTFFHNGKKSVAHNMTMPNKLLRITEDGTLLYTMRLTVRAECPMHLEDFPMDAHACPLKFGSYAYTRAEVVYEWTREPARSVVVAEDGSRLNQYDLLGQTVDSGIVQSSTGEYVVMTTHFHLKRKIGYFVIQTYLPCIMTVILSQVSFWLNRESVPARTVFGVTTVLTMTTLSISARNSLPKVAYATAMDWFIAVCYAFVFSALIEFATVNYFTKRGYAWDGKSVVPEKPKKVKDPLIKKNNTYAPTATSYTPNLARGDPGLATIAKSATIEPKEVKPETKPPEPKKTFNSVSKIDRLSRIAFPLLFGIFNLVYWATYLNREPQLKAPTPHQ

[5] = molecular target: 5-hydroxytryptamine receptor 2B (Homo sapiens, UniProt P41595); format: functional, cell-based
Sequence of 5-hydroxytryptamine receptor 2B (P41595 whole entry): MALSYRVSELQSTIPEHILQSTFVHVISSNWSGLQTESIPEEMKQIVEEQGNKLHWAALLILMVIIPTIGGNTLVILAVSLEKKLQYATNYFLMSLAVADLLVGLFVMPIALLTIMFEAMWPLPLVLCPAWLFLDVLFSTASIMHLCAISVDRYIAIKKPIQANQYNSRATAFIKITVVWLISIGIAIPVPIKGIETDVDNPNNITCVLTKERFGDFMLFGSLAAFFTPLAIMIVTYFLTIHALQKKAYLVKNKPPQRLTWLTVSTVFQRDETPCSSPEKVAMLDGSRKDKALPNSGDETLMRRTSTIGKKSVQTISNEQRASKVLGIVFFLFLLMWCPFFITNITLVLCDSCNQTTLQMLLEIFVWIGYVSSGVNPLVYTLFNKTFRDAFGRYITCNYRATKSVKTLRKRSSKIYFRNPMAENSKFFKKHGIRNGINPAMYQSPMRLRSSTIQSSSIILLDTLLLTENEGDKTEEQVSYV

[6] = molecular target: T1, Muscarinic acetylcholine receptor M2; format: functional, cell-based; remark: listed apart in the source
Cannabinoid receptor 1 = Cannabinoid receptor 1 (Homo sapiens, UniProt P21554); format: functional, cell-based
Sequence of Cannabinoid receptor 1 (P21554 whole entry): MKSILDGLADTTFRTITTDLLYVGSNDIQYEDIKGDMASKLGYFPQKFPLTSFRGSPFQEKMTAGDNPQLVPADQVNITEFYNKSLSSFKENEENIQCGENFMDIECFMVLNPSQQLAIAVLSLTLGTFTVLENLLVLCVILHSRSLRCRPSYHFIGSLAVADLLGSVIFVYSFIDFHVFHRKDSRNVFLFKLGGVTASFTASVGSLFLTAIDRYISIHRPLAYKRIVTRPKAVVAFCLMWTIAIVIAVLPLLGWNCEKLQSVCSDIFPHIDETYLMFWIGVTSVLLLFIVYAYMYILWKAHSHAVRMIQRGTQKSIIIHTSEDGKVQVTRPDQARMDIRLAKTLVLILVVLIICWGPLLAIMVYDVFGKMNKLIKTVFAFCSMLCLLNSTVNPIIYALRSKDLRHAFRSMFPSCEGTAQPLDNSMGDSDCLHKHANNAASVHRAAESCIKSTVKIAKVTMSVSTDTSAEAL

[7] = molecular target: T4, Muscarinic acetylcholine receptor M1 (Homo sapiens, UniProt P11229); format: functional, cell-based
T4 sequence (P11229 whole entry): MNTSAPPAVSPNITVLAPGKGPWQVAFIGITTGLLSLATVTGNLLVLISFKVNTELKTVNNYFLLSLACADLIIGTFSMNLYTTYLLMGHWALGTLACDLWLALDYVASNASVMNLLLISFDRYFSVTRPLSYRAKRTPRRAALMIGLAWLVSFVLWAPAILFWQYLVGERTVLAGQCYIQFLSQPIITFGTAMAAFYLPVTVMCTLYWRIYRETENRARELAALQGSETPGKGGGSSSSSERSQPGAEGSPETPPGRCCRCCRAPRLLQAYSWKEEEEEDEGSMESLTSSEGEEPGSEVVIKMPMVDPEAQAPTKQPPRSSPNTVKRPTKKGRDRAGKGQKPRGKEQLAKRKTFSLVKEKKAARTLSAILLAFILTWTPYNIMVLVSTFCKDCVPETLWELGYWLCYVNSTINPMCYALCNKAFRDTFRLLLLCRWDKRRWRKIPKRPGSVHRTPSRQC

Measured: AC50
Note: assay procedure not described here.

Sequence of D(1A) dopamine receptor (P21728 whole entry): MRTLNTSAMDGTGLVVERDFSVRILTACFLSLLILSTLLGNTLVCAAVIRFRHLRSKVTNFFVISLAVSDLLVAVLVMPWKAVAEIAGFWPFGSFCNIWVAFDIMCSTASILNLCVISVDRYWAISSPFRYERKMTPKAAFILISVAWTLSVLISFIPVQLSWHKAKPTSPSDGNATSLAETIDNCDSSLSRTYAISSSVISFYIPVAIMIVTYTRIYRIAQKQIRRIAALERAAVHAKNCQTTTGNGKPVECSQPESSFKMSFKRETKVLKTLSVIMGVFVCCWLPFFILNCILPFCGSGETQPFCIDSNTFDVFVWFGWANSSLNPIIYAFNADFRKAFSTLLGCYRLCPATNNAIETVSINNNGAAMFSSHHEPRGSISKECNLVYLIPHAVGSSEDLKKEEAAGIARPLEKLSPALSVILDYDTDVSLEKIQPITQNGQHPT
Sequence of Vasopressin V2 receptor (P30518 whole entry): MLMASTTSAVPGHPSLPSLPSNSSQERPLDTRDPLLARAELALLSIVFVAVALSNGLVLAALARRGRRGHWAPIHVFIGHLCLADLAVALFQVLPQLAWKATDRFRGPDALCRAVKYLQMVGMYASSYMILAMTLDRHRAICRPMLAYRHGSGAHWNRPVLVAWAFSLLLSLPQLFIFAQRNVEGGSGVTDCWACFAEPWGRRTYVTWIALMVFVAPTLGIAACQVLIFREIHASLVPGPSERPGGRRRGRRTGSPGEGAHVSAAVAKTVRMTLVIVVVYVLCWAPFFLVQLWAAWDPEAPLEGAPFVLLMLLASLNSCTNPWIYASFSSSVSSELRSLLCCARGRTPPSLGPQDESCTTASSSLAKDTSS
Sequence of Vasopressin V1a receptor (P37288 whole entry): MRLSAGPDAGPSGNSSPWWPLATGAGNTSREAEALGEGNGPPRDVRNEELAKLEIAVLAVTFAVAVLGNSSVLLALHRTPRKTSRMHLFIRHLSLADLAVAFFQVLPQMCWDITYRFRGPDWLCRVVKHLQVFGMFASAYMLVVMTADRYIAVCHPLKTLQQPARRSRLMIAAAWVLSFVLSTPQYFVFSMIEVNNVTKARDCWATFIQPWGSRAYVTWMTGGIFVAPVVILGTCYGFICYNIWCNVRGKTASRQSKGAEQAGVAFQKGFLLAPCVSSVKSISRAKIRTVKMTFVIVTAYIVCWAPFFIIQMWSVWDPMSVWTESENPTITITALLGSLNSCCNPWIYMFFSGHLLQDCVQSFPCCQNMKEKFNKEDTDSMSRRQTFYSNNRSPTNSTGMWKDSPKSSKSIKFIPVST
Sequence of Sodium-dependent serotonin transporter (P31645 whole entry): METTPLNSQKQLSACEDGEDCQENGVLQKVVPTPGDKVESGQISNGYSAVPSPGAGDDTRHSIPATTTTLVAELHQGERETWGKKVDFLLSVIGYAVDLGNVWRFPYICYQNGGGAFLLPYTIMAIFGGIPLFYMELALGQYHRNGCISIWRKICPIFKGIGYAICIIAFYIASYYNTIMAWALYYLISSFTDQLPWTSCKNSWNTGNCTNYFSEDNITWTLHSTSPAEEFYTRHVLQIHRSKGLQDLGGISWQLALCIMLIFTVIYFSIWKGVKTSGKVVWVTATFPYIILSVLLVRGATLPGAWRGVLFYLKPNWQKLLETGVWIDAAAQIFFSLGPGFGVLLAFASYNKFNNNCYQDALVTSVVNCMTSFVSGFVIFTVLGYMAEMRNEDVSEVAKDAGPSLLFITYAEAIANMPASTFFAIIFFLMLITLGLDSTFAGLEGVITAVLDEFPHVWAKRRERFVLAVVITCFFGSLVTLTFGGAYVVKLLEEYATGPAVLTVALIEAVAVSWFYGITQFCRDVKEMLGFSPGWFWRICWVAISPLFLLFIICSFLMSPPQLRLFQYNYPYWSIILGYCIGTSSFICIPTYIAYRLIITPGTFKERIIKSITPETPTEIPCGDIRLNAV
Sequence of Histamine H2 receptor (P25021 whole entry): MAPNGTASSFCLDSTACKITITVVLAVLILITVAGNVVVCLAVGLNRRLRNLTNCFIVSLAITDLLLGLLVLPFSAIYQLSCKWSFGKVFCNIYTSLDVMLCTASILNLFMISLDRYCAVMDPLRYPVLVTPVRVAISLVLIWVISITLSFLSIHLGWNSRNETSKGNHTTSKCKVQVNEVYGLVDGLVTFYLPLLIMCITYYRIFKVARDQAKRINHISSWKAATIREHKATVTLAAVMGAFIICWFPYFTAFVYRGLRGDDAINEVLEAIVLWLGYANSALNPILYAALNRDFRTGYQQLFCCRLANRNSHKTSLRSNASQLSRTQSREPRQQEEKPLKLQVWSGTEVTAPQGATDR

O=C(Cn1ccnc1[N+](=O)[O-])NCc1ccccc1 [BENZNIDAZOLE]
not listed: [7]
> 30 µM: all other assays above

Nc1nc(-n2cc(C(=O)O)c(=O)c3cc(F)c(N4CC(O)C4)c(Cl)c32)c(F)cc1F [DELAFLOXACIN]
> 30 µM: D(1A) dopamine receptor | [7]

NC(=O)c1cccc2cn(-c3ccc([C@@H]4CCCNC4)cc3)nc12 [NIRAPARIB]
> 30 µM: D(1A) dopamine receptor | [7]

From ChEMBL document CHEMBL5291721, “A preclinical secondary pharmacology resource illuminates target-adverse drug reaction associations of marketed drugs” (Nat Commun, 2023)
